According to ChEMBL document CHEMBL3044984, “Synthesis of 2-(5, 7-Difluoro-3-indolyl)-propionic Acid (5, 7-F2-IPA) and 2-(5, 7-Difluoro-3-indolyl)isobutyric Acid (5, 7-F2-IIBA) and Their Respective Auxin and Antiauxin Activities” (2001):
The source made the active and inactive calls. No cut-off for these calls is given here.

Legend:
Avena sativa [1] = experiment: Antiauxin activity in Avena sativa cv. Victory-1 assessed as auxin-induced growth inhibition at 10^-5 to 10^-4 M; format: functional, organism-based
Avena sativa [2] = experiment: Auxin activity in Avena sativa cv. Victory-1 assessed as coleoptile elongation at 3 x 10^-6 M; format: functional, organism-based
Avena sativa [3] = experiment: Antiauxin activity in Avena sativa cv. Victory-1 assessed as growth inhibition at 1 x 10^-4 M; format: functional, organism-based
Avena sativa [4] = experiment: Auxin activity in Avena sativa cv. Victory-1 assessed as increase of auxin-induced growth at 10^-5 M; format: functional
Avena sativa [5] = experiment: Auxin activity in Avena sativa cv. Victory-1 assessed as coleoptile elongation; format: functional, organism-based
Avena sativa [6] = experiment: Antiauxin activity in Avena sativa cv. Victory-1 assessed as growth inhibition; format: functional, organism-based
Avena sativa [7] = experiment: Auxin activity in Avena sativa cv. Victory-1 assessed as increase of auxin-induced growth at 5.6 x 10^-5 M; format: functional, organism-based
Avena sativa [8] = experiment: Antiauxin activity in Avena sativa cv. Victory-1 assessed as auxin-induced growth inhibition at 3 x 10^-5 M; format: functional, organism-based

Compound | Activity (Avena sativa [2]) | growth inhibition (GI) (Avena sativa [3]) | Activity (Avena sativa [5]) | growth inhibition (GI) (Avena sativa [6]) | further results
CC(C)(C(=O)O)c1c[nH]c2c(F)cc(F)cc12 | Active | Active | Active | – | growth inhibition (GI) (Avena sativa [1]): Active; Activity (Avena sativa [4]): 80%
CC(C)(C(=O)O)c1c[nH]c2c(Cl)cc(Cl)cc12 | – | – | inactive | – | –
O=C(O)Cc1c[nH]c2c(F)cc(F)cc12 | – | – | – | Active | –
CC(C(=O)O)c1c[nH]c2c(F)cc(F)cc12 (centres undefined) | Active | Active | Active | – | –
O=C(O)Cc1c[nH]c2ccccc12 | – | – | Active | – | Activity (Avena sativa [7]): inactive; growth inhibition (GI) (Avena sativa [8]): Active
CC(C)(C(=O)O)c1c[nH]c2ccccc12 | – | – | – | inactive | –
